Assay results reported in patent EP4806898A1, “HETEROARYL DERIVATIVE COMPOUND AND USE THEREOF” (Voronoi Inc., priority 2023, dated 2025).

Columns and labels:
UWB1.289 cells = experiment: Cell proliferation inhibitory activity in BRCA1/2-mutant or HRD-positive cells (Cell Titer-Glo); type: cell-based; conditions: UWB1289; UWB1.289 cells, 144 hours after compound treatment, Cell Titer-Glo, 1.5 nM to 10 µM; read-out: GI50 UWB1.289 BRCA1 mut
Outline: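 GI50 from CellTiter-Glo luminescence after 144 h compound exposure at 37 °C. Cells seeded at 1,000 per well in MEBM/RPMI1640 mix 16–24 h beforehand; […] from 10 µM down to 1.5 nM final (3-fold steps).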

recombinant USP1 protein = target: T1, recombinant USP1 protein (Homo sapiens, UniProt O94782, DEL125-138/DEL229-408/DEL608-737); experiment: Binding affinity to recombinant USP1 protein by differential scanning fluorimetry; conditions: compound 100 µM; 0.03 mg/mL USP1 (Δ1-66, Δ125-138, Δ229-408, Δ608-737); Tm with compound minus Tm with DMSO; read-out: ΔTm (°C)
T1 sequence (O94782 with tags, fused parts or gaps DEL125-138/DEL229-408/DEL608-737): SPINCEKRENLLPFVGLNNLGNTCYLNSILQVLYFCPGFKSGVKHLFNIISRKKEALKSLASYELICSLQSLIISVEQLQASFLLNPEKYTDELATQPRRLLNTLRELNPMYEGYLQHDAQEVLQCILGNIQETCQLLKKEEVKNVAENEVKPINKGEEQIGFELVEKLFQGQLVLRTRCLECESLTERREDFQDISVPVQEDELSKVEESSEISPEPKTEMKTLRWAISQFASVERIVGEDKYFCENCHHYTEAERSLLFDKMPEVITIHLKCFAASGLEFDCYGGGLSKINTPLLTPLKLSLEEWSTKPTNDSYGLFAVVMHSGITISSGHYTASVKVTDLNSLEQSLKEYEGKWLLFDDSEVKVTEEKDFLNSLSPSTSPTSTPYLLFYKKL
Outline: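 Thermal shift readout: ΔTm is the compound-well melting temperature less the DMSO-well value, measured by real-time PCR. Compounds tested at 100 µM final against 0.03 mg/mL truncated USP1 (Δ1-66, Δ125-138, Δ229-408, Δ608-737) in pH 8.0 Tris buffer containing 150 mM NaCl, 2% glycerol, 1 mM DTT.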

## COc1ncnc(C2CC2)c1-c1ncc2cc(C(=O)N3CCC4(CC3)CNCCO4)n(Cc3ccc(-c4nc(C(F)(F)F)cn4C(C)C)cc3)c2n1 [Example 94, (2-(4-cyclopropyl-6-methoxypyrimid in-5-yl)-7-(4-(1-isopropyl-4-(trifluoromethyl)-1H-imidazol-2-yl)benzyl)-7H-pyrrolo[2,3-d]pyrimidin-6-yl)(1-oxa-4,9-diazaspiro[5.5]undecan-9-yl)methanone]
UWB1.289 cells
  GI50: 100 to 500 nM
Recombinant USP1 protein
  ΔTm at 100 µM: > 5 °C

## CNC(=O)c1cc2cnc(-c3c(OC(F)F)ncnc3C3CC3)nc2n1Cc1ccc(-c2nc(C(F)(F)F)cn2C(C)C)cc1 [Example 95, 2-(4-cyclopropyl-6-(difluoromethoxy)pyrimidin-5-yl)-7-(4-(1-isopropyl-4-(trifluoromethyl)-1H-imidazol-2-yl)benzyl)-N-methyl-7H-pyrrolo[2,3-d]pyrimidine-6-carboxamide]
UWB1.289 cells
  GI50: 100 to 500 nM
Recombinant USP1 protein
  ΔTm at 100 µM: > 5 °C

## CN[C@H]1CCN(C(=O)c2cc3cnc(-c4c(OC)ncnc4C4CC4)nc3n2Cc2ccc(-c3nc(C(F)(F)F)cn3C(C)C)cc2)C1 [Example 97, (S)-(2-(4-cyclopropyl-6-methoxypyrimidin-5-yl)-7-(4-(1-isopropyl-4-(trifluoromethyl)-1H-imidazol-2-yl)benzyl)-7H-pyrrolo[2,3-d]pyrimidin-6-yl) (3-(methylamino)pyrrolidin-1-yl)methanone]
UWB1.289 cells
  GI50: 100 to 500 nM
Recombinant USP1 protein
  ΔTm at 100 µM: > 5 °C

## COc1ncnc(C2CC2)c1-c1ncc2cc(C(=O)N3CC(N)C3)n(Cc3ccc(-c4nc(C(F)(F)F)cn4C(C)C)cc3)c2n1 [Example 99, (3-aminoazetidin-1-yl)(2-(4-cyclopropyl-6-methoxypyrimidin-5-yl)-7-(4-(1-isopropyl-4-(trifluoromethyl)-1H-imidazol-2-yl)benzyl)-7H-pyrrolo[2,3-d]pyrimidin-6-yl)methanone]
UWB1.289 cells
  GI50: < 100 nM
Recombinant USP1 protein
  ΔTm at 100 µM: > 5 °C

## COc1ncnc(C2CC2)c1-c1ncc2cc(C(=O)NCCN)n(Cc3ccc(-c4nc(C(F)(F)F)cn4C(C)C)cc3)c2n1 [Example 100, N-(2-aminoethyl)-2-(4-cyclopropyl-6-methoxypyrimidin-5-yl)-7-(4-(1-isopropyl-4-(trifluoromethyl)-1H-imidazol-2-yl)benzyl)-7H-pyrrolo[2,3-d]pyrimidine-6-carboxamide]
UWB1.289 cells
  GI50: 100 to 500 nM
Recombinant USP1 protein
  ΔTm at 100 µM: > 5 °C

## COc1ncnc(C2CC2)c1-c1ncc2cc(C(=O)N3CC(F)C3)n(Cc3ccc(-c4nc(C(F)(F)F)cn4C(C)C)cc3)c2n1 [Example 101, (2-(4-cyclopropyl-6-methoxypyrimid in-5-yl)-7-(4-(1-isopropyl-4-(trifluoromethyl)-1H-imidazol-2-yl)benzyl)-7H-pyrrolo[2,3-d]pyrimidin-6-yl) (3-fluoroazetidin-1-yl)methanone]
UWB1.289 cells
  GI50: 100 to 500 nM
Recombinant USP1 protein
  ΔTm at 100 µM: > 5 °C

## COc1ncnc(C2CC2)c1-c1ncc2cc(C(=O)NCCN3CCN(C)CC3)n(Cc3ccc(-c4nc(C(F)(F)F)cn4C(C)C)cc3)c2n1 [Example 102, 2-(4-cyclopropyl-6-methoxypyrimidin-5-yl)-7-(4-(1-isopropyl-4-(trifluoromethyl)-1H-imidazol-2-yl)benzyl)-N-(2-(4-methylpiperazin-1-yl)ethyl)-7H-pyrrolo[2,3-d]pyrimidine-6-carboxamide]
UWB1.289 cells
  GI50: < 100 nM
Recombinant USP1 protein
  ΔTm at 100 µM: > 5 °C

## COc1ncnc(C2CC2)c1-c1ncc2cc(C(=O)NC3(C)COC3)n(Cc3ccc(-c4nc(C(F)(F)F)cn4C(C)C)cc3)c2n1 [Example 104, 2-(4-cyclopropyl-6-methoxypyrimidin-5-yl)-7-(4-(1-isopropyl-4-(trifluoromethyl)-1H-imidazol-2-yl)benzyl)-N-(3-methyloxetan-3-yl)-7H-pyrrolo[2,3-d]pyrimidine-6-carboxamide]
UWB1.289 cells
  GI50: < 100 nM
Recombinant USP1 protein
  ΔTm at 100 µM: > 5 °C

## COc1ncnc(C2CC2)c1-c1ncc2cc(C(=O)N3CC[C@@H](O)C3)n(Cc3ccc(-c4nc(C(F)(F)F)cn4C(C)C)cc3)c2n1 [Example 105, (R) - (2-(4-cyclopropyl-6-methoxypyrimid in-5-yl)-7-(4-(1-isopropyl-4-(trifluoromethyl)-1H-imidazol-2-yl)benzyl)-7H-pyrrolo[2,3-d]pyrimidin-6-yl) (3-hydroxypyrrolidin-1-yl)methanone]
UWB1.289 cells
  GI50: 100 to 500 nM
Recombinant USP1 protein
  ΔTm at 100 µM: > 5 °C

## COCCNC(=O)c1cc2cnc(-c3c(OC)ncnc3C3CC3)nc2n1Cc1ccc(-c2nc(C(F)(F)F)cn2C(C)C)cc1 [Example 106, 2-(4-cyclopropyl-6-methoxypyrimidin-5-yl)-7-(4-(1-isopropyl-4-(trifluoromethyl)-1H-imidazol-2-yl)benzyl)-N-(2-methoxyethyl)-7H-pyrrolo[2,3-d]pyrimidine-6-carboxamide]
UWB1.289 cells
  GI50: < 100 nM
Recombinant USP1 protein
  ΔTm at 100 µM: > 5 °C

## COc1ncnc(C2CC2)c1-c1ncc2cc(C(=O)NC[C@@H]3CCCN3C)n(Cc3ccc(-c4nc(C(F)(F)F)cn4C(C)C)cc3)c2n1 [Example 108, (S)-2-(4-cyclopropyl-6-methoxypyrimidin-5-yl)-7-(4-(1-isopropyl-4-(trifluoromethyl)-1H-imidazol-2-yl)benzyl)-N-((1-methylpyrrolidin-2-yl)methyl)-7H-pyrrolo[2,3-d]pyrimidine-6-carboxamide]
UWB1.289 cells
  GI50: < 100 nM
Recombinant USP1 protein
  ΔTm at 100 µM: > 5 °C

## CN[C@@H]1CCN(C(=O)c2cc3cnc(-c4c(OC)ncnc4C4CC4)nc3n2Cc2ccc(-c3nc(C(F)(F)F)cn3C(C)C)cc2)C1 [Example 109, (R) - (2-(4-cyclopropyl-6-methoxypyrimid in-5-yl)-7-(4-(1-isopropyl-4-(trifluoromethyl)-1H-imidazol-2-yl)benzyl)-7H-pyrrolo[2,3-d]pyrimidin-6-yl) (3-(methylamino)pyrrolidin-1-yl)methanone]
UWB1.289 cells
  GI50: < 100 nM
Recombinant USP1 protein
  ΔTm at 100 µM: > 5 °C

## COc1ncnc(C2CC2)c1-c1ncc2cc(C(=O)NC3CN(C)C3)n(Cc3ccc(-c4nc(C(F)(F)F)cn4C(C)C)cc3)c2n1 [Example 110, 2-(4-cyclopropyl-6-methoxypyrimidin-5-yl)-7-(4-(1-isopropyl-4-(trifluoromethyl)-1H-imidazol-2-yl)benzyl)-N-(1-methylazetidin-3-yl)-7H-pyrrolo[2,3-d]pyrimidine-6-carboxamide]
UWB1.289 cells
  GI50: 100 to 500 nM
Recombinant USP1 protein
  ΔTm at 100 µM: > 5 °C

## COc1ncnc(C2CC2)c1-c1ncc2cc(C(=O)N(C)C3COC3)n(Cc3ccc(-c4nc(C(F)(F)F)cn4C(C)C)cc3)c2n1 [Example 111, 2-(4-cyclopropyl-6-methoxypyrimidin-5-yl)-7-(4-(1-isopropyl-4-(trifluoromethyl)-1H-imidazol-2-yl)benzyl)-N-methyl-N-(oxetan-3-yl)-7H-pyrrolo[2,3-d]pyrimidine-6-carboxamide]
UWB1.289 cells
  GI50: 100 to 500 nM
Recombinant USP1 protein
  ΔTm at 100 µM: > 5 °C

## COc1ncnc(C2CC2)c1-c1ncc2cc(C(=O)N3C[C@H](O)[C@H]3C)n(Cc3ccc(-c4nc(C(F)(F)F)cn4C(C)C)cc3)c2n1 [Example 112, (2-(4-cyclopropyl-6-methoxypyrimid in-5-yl)-7-(4-(1-isopropyl-4-(trifluoromethyl)-1H-imidazol-2-yl)benzyl)-7H-pyrrolo[2,3-d]pyrimidin-6-yl)((2R,3S)-3-hydroxy-2-methylazetidin-1-yl)methanone]
UWB1.289 cells
  GI50: < 100 nM
Recombinant USP1 protein
  ΔTm at 100 µM: > 5 °C

## COc1ncnc(C2CC2)c1-c1ncc2cc(C(=O)N[C@@H](C)CO)n(Cc3ccc(-c4nc(C(F)(F)F)cn4C(C)C)cc3)c2n1 [Example 113, (S)-2-(4-cyclopropyl-6-methoxypyrimidin-5-yl)-N-(1-hydroxypropan-2-yl)-7-(4-(1-isopropyl-4-(trifluoromethyl)-1H-imidazol-2-yl)benzyl)-7H-pyrrolo[2,3-d]pyrimidine-6-carboxamide]
UWB1.289 cells
  GI50: < 100 nM
Recombinant USP1 protein
  ΔTm at 100 µM: > 5 °C

## COc1ncnc(C2CC2)c1-c1ncc2cc(C(=O)NCC(C)C)n(Cc3ccc(-c4nc(C(F)(F)F)cn4C(C)C)cc3)c2n1 [Example 114, 2-(4-cyclopropyl-6-methoxypyrimidin-5-yl)-N-isobutyl-7-(4-(1-isopropyl-4-(trifluoromethyl)-1H-imidazol-2-yl)benzyl)-7H-pyrrolo[2,3-d]pyrimidine-6-carboxamide]
UWB1.289 cells
  GI50: < 100 nM
Recombinant USP1 protein
  ΔTm at 100 µM: > 5 °C

## COc1ncnc(C2CC2)c1-c1ncc2cc(C(=O)N[C@@H]3CCC[C@H]3N(C)C)n(Cc3ccc(-c4nc(C(F)(F)F)cn4C(C)C)cc3)c2n1 [Example 115, 2-(4-cyclopropyl-6-methoxypyrimidin-5-yl)-N-((1R,2R)-2-(dimethylamino)cyclopentyl)-7-(4-(1-isopropyl-4-(trifluoromethyl)-1H-imidazol-2-yl)benzyl)-7H-pyrrolo[2,3-d]pyrimidine-6-carboxamide]
UWB1.289 cells
  GI50: < 100 nM
Recombinant USP1 protein
  ΔTm at 100 µM: > 5 °C
